Source: patent publication US10167279B2 (NOVARTIS AG, priority 2014, dated 2019)

molecular target: C-Raf FL (Homo sapiens (Human), UniProt P04049, Y340E/Y341E); experiment: In vitro Raf activity determination (Alpha Screen, phospho-MEK), C-Raf FL (full length, Y340E/Y341E); type: biochemical; conditions: ATP 1 μM; 60 min pre-incubation; 1 hour reaction; column head does not say FL or TR
Outline: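 Read-out is AlphaScreen luminescence using rabbit anti-p-MEK with protein A beads after EDTA stop, with IC50 fitted by non-linear regression. Reaction: Sf9-derived C-Raf plus biotinylated E. coli MEK1 K97R substrate, pH 7.5 Tris/MgCl2/DTT buffer, compound preincubated 60 min at room temperature.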

Sequence of C-Raf FL (P04049 whole entry Y340E/Y341E): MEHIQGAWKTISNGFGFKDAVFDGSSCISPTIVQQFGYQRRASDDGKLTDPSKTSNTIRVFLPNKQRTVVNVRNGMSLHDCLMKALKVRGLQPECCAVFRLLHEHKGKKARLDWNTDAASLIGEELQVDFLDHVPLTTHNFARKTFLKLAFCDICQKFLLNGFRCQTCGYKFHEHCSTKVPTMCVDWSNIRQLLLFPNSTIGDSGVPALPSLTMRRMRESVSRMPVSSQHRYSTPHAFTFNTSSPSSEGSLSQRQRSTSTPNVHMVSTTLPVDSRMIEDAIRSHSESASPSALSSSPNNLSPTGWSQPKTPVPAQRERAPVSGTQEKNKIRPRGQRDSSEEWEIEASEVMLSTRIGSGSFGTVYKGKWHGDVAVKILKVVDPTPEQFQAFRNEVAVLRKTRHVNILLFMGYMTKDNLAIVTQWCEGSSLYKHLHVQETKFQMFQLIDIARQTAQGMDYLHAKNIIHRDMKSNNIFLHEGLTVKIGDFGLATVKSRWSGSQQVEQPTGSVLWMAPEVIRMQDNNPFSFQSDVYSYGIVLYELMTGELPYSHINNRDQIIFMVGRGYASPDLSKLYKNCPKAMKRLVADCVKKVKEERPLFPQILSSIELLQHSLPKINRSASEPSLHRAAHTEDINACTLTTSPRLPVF
Sequence of C-Raf FL (P63104 whole entry partner): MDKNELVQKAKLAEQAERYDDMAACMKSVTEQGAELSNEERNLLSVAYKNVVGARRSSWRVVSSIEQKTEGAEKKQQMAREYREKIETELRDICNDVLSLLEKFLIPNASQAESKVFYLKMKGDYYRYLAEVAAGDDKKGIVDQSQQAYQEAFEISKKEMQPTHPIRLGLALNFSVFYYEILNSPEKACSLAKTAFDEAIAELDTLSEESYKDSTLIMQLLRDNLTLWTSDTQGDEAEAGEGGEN

Compound | IC50
Cc1ccc(NC(=O)c2ccnc(C(F)(F)F)c2)cc1-c1cc2c(c(C3CCOCC3)c1)NC(=O)C(C)(CO)O2 (stereo not drawn) [Example 242, N-(3-(2-(hydroxymethyl)-2-methyl-3-oxo-5-(tetrahydro-2H-pyran-4-yl)-3,4-dihydro-2H-benzo[b][1,4]oxazin-7-yl)-4-methylphenyl)-2-(trifluoromethyl) isonicotinamide] | 0.1 nM
Cc1ccc(NC(=O)c2cc(C(F)(F)F)ccn2)cc1-c1cc(OCCO)nc(C2(CO)CCOCC2)c1 [Example 219] | 0.5 nM
COC1(c2cc(-c3cc(NC(=O)c4ccnc(C(C)(F)F)c4)ccc3C)cnc2OCCO)COC1 [Example 60, 2-(1,1-difluoroethyl)-N-(3-(6-(2-hydroxyethoxy)-5-(3-methoxyoxetan-3-yl)pyridin-3-yl)-4-methylphenyl)isonicotin-amide] | 0.203 nM
COc1ncc(-c2cc(C(=O)Nc3ccnc(C(F)(F)F)c3)ccc2C)cc1C1(O)COC1 [Example 17, 3-(5-(3-hydroxyoxetan-3-yl)-6-methoxypyridin-3-yl)-4-methyl-N-(2-(trifluoromethyl)pyridin-4-yl)benzamide] | 0.7 nM
Cc1ccc(NC(=O)c2ccnc(C(F)(F)F)c2)cc1-c1cc(OCCO)nc(C2CCOCC2O)c1 (stereo not drawn) [Example 162, N-(3-(2-(2-hydroxyethoxy)-6-(3-hydroxytetrahydro-2H-pyran-4-yl)pyridin-4-yl)-4-methylphenyl)-2-(trifluoromethyl)isonicotinamide] | 1 nM
Cc1ccc(NC(=O)c2ccnc(C(C)(F)F)c2)cc1-c1cc(C2(O)COC2)cc(C2(F)COC2)c1 [Example 136, 2-(1,1-difluoroethyl)-N-(3′-(3-fluorooxetan-3-yl)-5′-(3-hydroxyoxetan-3-yl)-6-methyl-[1,1′-biphenyl]-3-yl)isonicotinamide] | 0.177 nM
COc1ncc(-c2cc(C(=O)Nc3cc(C(C)(C)N)cc(C(F)(F)F)c3)ccc2C)cc1C1(O)COC1 [Example 150, N-(3-(2-aminopropan-2-yl)-5-(trifluoromethyl)phenyl)-3-(5-(3-hydroxyoxetan-3-yl)-6-methoxypyridin-3-yl)-4-methylbenzamide] | 3 nM

Other lines, results leading:

IC50 | Compound
0.149 nM | Cc1ccc(NC(=O)c2ccnc(C(F)(F)F)c2)cc1-c1cc(OCCO)nc(C2(CF)COC2)c1 [Example 57, N-(3-(2-(3-(fluoromethyl)oxetan-3-yl)-6-(2-hydroxyethoxy)pyridin-4-yl)-4-methylphenyl)-2-(trifluoromethyl)isonicotin-amide]
0.1 nM | Cc1ccc(NC(=O)c2ccnc(C(F)(F)F)c2)cc1-c1cc(C2CCOCC2)c(NC[C@@H](C)O)nn1 [Example 312, (R)-N-(3-(6-((2-hydroxypropyl)amino)-5-(tetrahydro-2H-pyran-4-yl)pyridazin-3-yl)-4-methylphenyl)-2-(trifluoromethyl) isonicotinamide]
0.1 nM | Cc1ccc(NC(=O)c2ccnc(C(C)(F)F)c2)cc1-c1cc2c(c(C3CCOCC3)c1)NC(=O)C(C)(CO)O2 (stereo not drawn) [Example 191, 2-(1,1-difluoroethyl)-N-(3-(2-(hydroxymethyl)-2-methyl-3-oxo-5-(tetrahydro-2H-pyran-4-yl)-3,4-dihydro-2H-benzo [b][1,4]oxazin-7-yl)-4-methylphenyl) isonicotinamide]
0.1 nM | Cc1ccc(NC(=O)c2ccnc(C(F)(F)F)c2)cc1-c1cc(NCCO)nc(C2(O)COC2)c1 [Example 299, N-(3-(2-((2-hydroxyethyl)amino)-6-(3-hydroxyoxetan-3-yl)pyridin-4-yl)-4-methylphenyl)-2-(trifluoromethyl) isonicotinamide]
0.06 nM | CCN1CCC(Oc2nnc(-c3cc(NC(=O)c4ccnc(C(F)(F)F)c4)ccc3C)cc2C2CCOCC2)CC1 [Example 314, N-(3-(6-((1-ethylpiperidin-4-yl)oxy)-5-(tetrahydro-2H-pyran-4-yl)pyridazin-3-yl)-4-methylphenyl)-2-(trifluoromethyl) isonicotinamide]
